Experimental findings from patent US12435092B2, “Substituted imidazo[1,2-A]quinazolines as inhibitors of PARG” (858 Therapeutics, Inc., priority 2022, dated 2025) are described below.

The experiment addresses T1, cellular PARG (Homo sapiens, UniProt Q86W56).
T1 construct: endogenous in cells; host or cells: HeLa
Briefly: Nuclear PAR accumulation assay (immunofluorescence high-content imaging). It is filed as cell-based. Particulars: HeLa cells, 1 hour compound treatment then MMS 50 μg/mL for an additional hour. On the procedure:
Compound IC50 values for inhibition of cellular PARG were determined using an immunofluorescence high-content imaging assay for nuclear PAR accumulation. HeLa cells were plated at 15,000 cells/well in a 96-well plate the day before compound treatment and then treated with varying concentrations of test compound and incubated for 1 hour at 37° C.+5% CO2. Following test compound treatment, methylmethane sulfonate (MMS) was added to a final concentration of 50 μg/mL and the cells were incubated for an additional hour. Following treatment, the cells were fixed with ice cold 95% methanol and the plates sealed and placed at −20° C. for 15 minutes. The cells were then washed once with phosphate buffered saline (PBS) and permeabilized with 0.1% Triton-X 100 for 20 minutes at room temperature. The cells were again washed once with PBS and incubated with an anti-poly-ADP ribose (PAR) monoclonal antibody (Millipore Part #AM80 clone 10H) diluted 1:1,000 in 5% fetal bovine serum +0.1% Tween-20+PBS overnight at 4° C. The cells were then washed three times with PBS before incubation with a fluorescently conjugated goat anti-mouse antibody (Invitrogen A32723) diluted 1:500 in 5% FBS+0.1% Tween-20+PBS for 1 hour at room temperature. The cells were again washed three times with PBS and the nuclei labeled by incubating with 1 μg/mL DAPI (4′,6-diamidino-2-phenylindole). Nuclear PAR accumulation was evaluated using high-content fluorescence microscopy. Four fields for each well were acquired at 20× magnification resulting in at least 1,000 cells analyzed per well. Using high-content software (CellReporterXpress) the nuclei were detected and segmented using the DAPI channel and the fluorescence intensity of the PAR-Alexa 488 channel was quantified within the nuclei regions. Both the average intensity per nucleus and percent PAR positive cells were quantified. Percent PAR positive cells were identified by having greater anti-PAR labeling above the threshold set with vehicle DMSO treated control cells. Percent inhibition of PARG by test compounds was calculated by normalizing the data to the 0.1% DMSO and reference compound control values, which represent 0% and 100% inhibition of enzymatic activity, respectively. Concentration-response-curves and IC50 values were generated using four parameter logistic curve fit software.

Each structure is given as a SMILES string.

T1 sequence (Q86W56 whole entry): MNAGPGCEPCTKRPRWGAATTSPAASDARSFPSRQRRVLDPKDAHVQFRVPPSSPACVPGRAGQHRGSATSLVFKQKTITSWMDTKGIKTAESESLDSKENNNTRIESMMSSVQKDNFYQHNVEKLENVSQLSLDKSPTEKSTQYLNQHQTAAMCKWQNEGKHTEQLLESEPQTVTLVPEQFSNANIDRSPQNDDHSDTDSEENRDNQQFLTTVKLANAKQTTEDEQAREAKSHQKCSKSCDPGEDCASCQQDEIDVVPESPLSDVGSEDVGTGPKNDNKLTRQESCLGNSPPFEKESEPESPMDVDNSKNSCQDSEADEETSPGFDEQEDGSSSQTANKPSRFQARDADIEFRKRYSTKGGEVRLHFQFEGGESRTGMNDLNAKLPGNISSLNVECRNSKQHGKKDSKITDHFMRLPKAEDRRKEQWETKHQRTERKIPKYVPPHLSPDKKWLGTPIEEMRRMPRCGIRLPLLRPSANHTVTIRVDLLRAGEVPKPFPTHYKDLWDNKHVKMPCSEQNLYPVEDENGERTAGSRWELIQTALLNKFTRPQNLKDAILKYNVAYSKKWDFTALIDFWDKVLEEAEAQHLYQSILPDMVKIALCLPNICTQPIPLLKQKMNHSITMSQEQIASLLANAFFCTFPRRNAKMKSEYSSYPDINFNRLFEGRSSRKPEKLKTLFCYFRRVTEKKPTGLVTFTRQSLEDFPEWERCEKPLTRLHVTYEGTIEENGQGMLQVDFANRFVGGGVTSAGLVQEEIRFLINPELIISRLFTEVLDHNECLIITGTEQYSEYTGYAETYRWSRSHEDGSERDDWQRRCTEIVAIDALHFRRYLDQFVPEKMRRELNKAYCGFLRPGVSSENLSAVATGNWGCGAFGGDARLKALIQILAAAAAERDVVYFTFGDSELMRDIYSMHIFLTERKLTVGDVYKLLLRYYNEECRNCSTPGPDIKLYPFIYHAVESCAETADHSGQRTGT

Turning to `C#C[C@H]1CN=C2N(Cc3cnn(C)c3)C(=O)c3cc(S(=O)(=O)NC4(C)CC4)ccc3N21` [Example 33, (S)-1-ethynyl-4-((1-methyl-1H-pyrazol-4-yl)methyl)-N-(1-methylcyclopropyl)-5-oxo-1,2,4,5-tetrahydroimidazo[1,2-a]quinazoline-7-sulfonamide], the IC50 (as a rule, the concentration needed to halve the response being measured) is 0.1 to 1 µM.
The compound `C#C[C@@H]1CN=C2N(Cc3cnn(C)c3)C(=O)c3cc(S(=O)(=O)NC4(C)CC4)ccc3N21` [Example 34, (R)-1-ethynyl-4-((1-methyl-1H-pyrazol-4-yl)methyl)-N-(1-methylcyclopropyl)-5-oxo-1,2,4,5-tetrahydroimidazo[1,2-a]quinazoline-7-sulfonamide] displayed an IC50 of no more than 0.1 µM.
`Cn1cc(CN2C(=O)c3cc(S(=O)(=O)NC4(C)CC4)ccc3N3C2=NC[C@H]3C2CC2)cn1` [Example 35, (R)-1-cyclopropyl-4-((1-methyl-1H-pyrazol-4-yl)methyl)-N-(1-methylcyclopropyl)-5-oxo-1,2,4,5-tetrahydroimidazo[1,2-a]quinazoline-7-sulfonamide] came in with an IC50 of no more than 0.1 µM.
`Cn1cc(CN2C(=O)c3cc(S(=O)(=O)NC4(C)CC4)ccc3N3C2=NC[C@@H]3C2CC2)cn1` [Example 36, (S)-1-cyclopropyl-4-((1-methyl-1H-pyrazol-4-yl)methyl)-N-(1-methylcyclopropyl)-5-oxo-1,2,4,5-tetrahydroimidazo[1,2-a]quinazoline-7-sulfonamide] displayed a concentration for half-maximal inhibition (IC50) of 0.1 to 1 µM.
The compound `CCN1C(=O)c2cc(S(=O)(=O)NC3(C)CC3)ccc2N2C1=NC[C@@H]2C(C)C` [Example 37, (S)-4-ethyl-1-isopropyl-N-(1-methylcyclopropyl)-5-oxo-1,2,4,5-tetrahydroimidazo[1,2-a]quinazoline-7-sulfonamide] showed an IC50 greater than 10 µM.
`CCN1C(=O)c2cc(S(=O)(=O)NC3(C)CC3)ccc2N2C1=NC[C@H]2C(C)C` [Example 38, (R)-4-ethyl-1-isopropyl-N-(1-methylcyclopropyl)-5-oxo-1,2,4,5-tetrahydroimidazo[1,2-a]quinazoline-7-sulfonamide] had an IC50 of 0.1 to 1 µM.
For the compound `CC(C)[C@H]1CN=C2N(Cc3cnn(C)c3)C(=O)c3cc(S(=O)(=O)NC4(C)CC4)ccc3N21` [Example 39, (S)-1-isopropyl-4-((1-methyl-1H-pyrazol-4-yl)methyl)-N-(1-methylcyclopropyl)-5-oxo-1,2,4,5-tetrahydroimidazo[1,2-a]quinazoline-7-sulfonamide], the IC50 fell in the range of 1 to 10 µM.
In turn, `CC(C)[C@@H]1CN=C2N(Cc3cnn(C)c3)C(=O)c3cc(S(=O)(=O)NC4(C)CC4)ccc3N21` [Example 40, (R)-1-isopropyl-4-((1-methyl-1H-pyrazol-4-yl)methyl)-N-(1-methylcyclopropyl)-5-oxo-1,2,4,5-tetrahydroimidazo[1,2-a]quinazoline-7-sulfonamide] registered an IC50 of no more than 0.1 µM.
Consider `CC[C@H]1CN=C2N(CC)C(=O)c3cc(S(=O)(=O)NC4(C)CC4)ccc3N21` [Example 41, (S)-1,4-diethyl-N-(1-methylcyclopropyl)-5-oxo-1,2,4,5-tetrahydroimidazo[1,2-a]quinazoline-7-sulfonamide], for which the IC50 was greater than 10 µM.
`CC[C@@H]1CN=C2N(CC)C(=O)c3cc(S(=O)(=O)NC4(C)CC4)ccc3N21` [Example 42, (R)-1,4-diethyl-N-(1-methylcyclopropyl)-5-oxo-1,2,4,5-tetrahydroimidazo[1,2-a]quinazoline-7-sulfonamide] returned an IC50 of 0.1 to 1 µM.
Compound `C#CC1CN=C2N(C)C(=O)c3cc(S(=O)(=O)NC4(C)CC4)ccc3N21` (stereo not shown) [Example 43, 1-ethynyl-4-methyl-N-(1-methylcyclopropyl)-5-oxo-1,2,4,5-tetrahydroimidazo[1,2-a]quinazoline-7-sulfonamide] registered an IC50 of 0.1 to 1 µM.
In the case of `CC[C@H]1CN=C2N(Cc3cnn(C)c3)C(=O)c3cc(S(=O)(=O)NC4(C)CC4)ccc3N21` [Example 44, (S)-1-ethyl-4-((1-methyl-1H-pyrazol-4-yl)methyl)-N-(1-methylcyclopropyl)-5-oxo-1,2,4,5-tetrahydroimidazo[1,2-a]quinazoline-7-sulfonamide] it was 0.1 to 1 µM; in that of `CC[C@@H]1CN=C2N(Cc3cnn(C)c3)C(=O)c3cc(S(=O)(=O)NC4(C)CC4)ccc3N21` [Example 45, (R)-1-ethyl-4-((1-methyl-1H-pyrazol-4-yl)methyl)-N-(1-methylcyclopropyl)-5-oxo-1,2,4,5-tetrahydroimidazo[1,2-a]quinazoline-7-sulfonamide], no more than 0.1 µM; in that of `C[C@@H]1CN=C2N(Cc3cnn(C)c3)C(=O)c3cc(S(=O)(=O)NC4(C)CC4)ccc3N21` [Example 46, (R)-1-methyl-4-((1-methyl-1H-pyrazol-4-yl)methyl)-N-(1-methylcyclopropyl)-5-oxo-1,2,4,5-tetrahydroimidazo[1,2-a]quinazoline-7-sulfonamide], no more than 0.1 µM.
For the compound `CCN1C(=O)c2cc(S(=O)(=O)NC3(C)CC3)ccc2N2C1=NC[C@H]2C` [Example 47, (R)-4-ethyl-1-methyl-N-(1-methylcyclopropyl)-5-oxo-1,2,4,5-tetrahydroimidazo[1,2-a]quinazoline-7-sulfonamide], the concentration for half-maximal inhibition (IC50) lay in the range of 0.1 to 1 µM.
The result for `CN1C(=O)c2cc(S(=O)(=O)NC3(C)CC3)ccc2N2C1=NCC2C1CC1` (stereo not shown) [Example 48, 1-cyclopropyl-4-methyl-N-(1-methylcyclopropyl)-5-oxo-1,2,4,5-tetrahydroimidazo[1,2-a]quinazoline-7-sulfonamide] reads 0.1 to 1 µM; that for `CC(C)C1CN=C2N(C)C(=O)c3cc(S(=O)(=O)NC4(C)CC4)ccc3N21` (stereo not shown) [Example 49, 1-isopropyl-4-methyl-N-(1-methylcyclopropyl)-5-oxo-1,2,4,5-tetrahydroimidazo[1,2-a]quinazoline-7-sulfonamide], 1 to 10 µM.
The result for `CCC1CN=C2N(C)C(=O)c3cc(S(=O)(=O)NC4(C)CC4)ccc3N21` (stereo not shown) [Example 50, 1-ethyl-4-methyl-N-(1-methylcyclopropyl)-5-oxo-1,2,4,5-tetrahydroimidazo[1,2-a]quinazoline-7-sulfonamide] reads 0.1 to 1 µM; that for `C[C@@H]1CN=C2N(Cc3ccccc3)C(=O)c3cc(S(=O)(=O)NC4(C)CC4)ccc3N21` [Example 51, (R)-4-benzyl-1-methyl-N-(1-methylcyclopropyl)-5-oxo-1,2,4,5-tetrahydroimidazo[1,2-a]quinazoline-7-sulfonamide], 1 to 10 µM; that for `C[C@@H]1CN=C2N(C)C(=O)c3cc(S(=O)(=O)NC4(C)CC4)ccc3N21` [Example 52, (R)-1,4-dimethyl-N-(1-methylcyclopropyl)-5-oxo-1,2,4,5-tetrahydroimidazo[1,2-a]quinazoline-7-sulfonamide], 0.1 to 1 µM.
The result for `C[C@@H]1CN=C2N(Cc3cnn(CCN(C)C)c3)C(=O)c3cc(S(=O)(=O)NC4(C)CC4)ccc3N21` [Example 53, (R)-4-((1-(2-(dimethylamino)ethyl)-1H-pyrazol-4-yl)methyl)-1-methyl-N-(1-methylcyclopropyl)-5-oxo-1,2,4,5-tetrahydroimidazo[1,2-a]quinazoline-7-sulfonamide] reads 0.1 to 1 µM; that for `C[C@@H]1CN=C2N(CC3COC3)C(=O)c3cc(S(=O)(=O)NC4(C)CC4)ccc3N21` [Example 54, (R)-1-methyl-N-(1-methylcyclopropyl)-4-(oxetan-3-ylmethyl)-5-oxo-1,2,4,5-tetrahydroimidazo[1,2-a]quinazoline-7-sulfonamide], greater than 10 µM.
